Laboratory results: US10781189B2, “1,2,4-Oxadiazole and thiadiazole compounds as immunomodulators” (Aurigene Discovery Technologies Limited, priority 2015, dated 2020)

Biological target: T1, Recombinant mouse PD-L1 (Mus musculus, UniProt Q9EP73)
T1 construct: Fc (Fc chimera); purchased R&D Systems 1019-B7-100
Assay: Rescue of mouse splenocyte proliferation in the presence of recombinant PD-L1 (CFSE proliferation assay)
Format: cell-based
Settings: 100 nM compound; CFSE-labelled C57 BL6 mouse splenocytes + anti-CD3/CD28 + PD-L1 (100 ng/mL), 72 h; normalised to stimulated splenocytes as 100%; read-out: Percent rescue of splenocyte proliferation (@100 nM)
Procedure: Example 15: Rescue of Mouse Splenocyte Proliferation in the Presence of Recombinant PD-L1
Recombinant mouse PD-L1 (rm-PDL-1, cat no: 1019-B7-100; R&D Systems) were used as the source of PD-L1.
Mouse splenocytes harvested from 6-8 weeks old C57 BL6 mice; RPMI 1640 (GIBCO, Cat #11875); DMEM with high glucose (GIBCO, Cat # D6429); Fetal Bovine Serum [Hyclone, Cat # SH30071.03]; Penicillin (10000 unit/mL)-Streptomycin (10,000 μg/mL) Liquid (GIBCO, Cat #15140-122); MEM Sodium Pyruvate solution 100 mM (100×), Liquid (GIBCO, Cat #11360); Nonessential amino acid (GIBCO, Cat #11140); L-Glutamine (GIBCO, Cat #25030); Anti-CD3 antibody (eBiosciences—16-0032); Anti-CD28 antibody (eBiosciences—16-0281); ACK lysis buffer (1 mL) (GIBCO, Cat #-A10492); Histopaque (density-1.083 gm/mL) (SIGMA 10831); Trypan blue solution (SIGMA-T8154); 2 mL Norm Ject Luer Lock syringe-(Sigma 2014-12); 40 μm nylon cell strainer (BD FALCON 35230); Hemacytometer (Bright line-SIGMA Z359629); FACS Buffer (PBS/0.1% BSA): Phosphate Buffered Saline (PBS) pH 7.2 (HiMedia TS1006) with 0.1% Bovine Serum Albumin (BSA) (SIGMA A7050) and sodium azide (SIGMA 08591); 5 mM stock solution of CFSE: CFSE stock solution was prepared by diluting lyophilized CFSE with 180 μL of Dimethyl sulfoxide (DMSO C2H6SO, SIGMA-D-5879) and aliquoted in to tubes for further use. Working concentrations were titrated from 10 μM to 1 μM. (eBioscience—650850-85); 0.05% Trypsin and 0.02% EDTA (SIGMA 59417C); 96-well format ELISA plates (Corning CLS3390); BD FACS caliber (E6016); Recombinant mouse B7-H1/PDL1 Fc Chimera, (rm-PD-L1 cat no: 1019-B7-100).
Splenocytes harvested in a 50 mL falcon tube by mashing mouse spleen in a 40 μm cell strainer were further treated with 1 mL ACK lysis buffer for 5 min at room temperature. After washing with 9 mL of RPMI complete media, cells were re-suspended in 3 mL of 1×PBS in a 15 mL tube. 3 mL of Histopaque was added carefully to the bottom of the tube without disturbing overlaying splenocyte suspension. After centrifuging at 800×g for 20 min at room temperature, the opaque layer of splenocytes was collected carefully without disturbing/mixing the layers. Splenocytes were washed twice with cold 1×PBS followed by total cell counting using Trypan Blue exclusion method and used further for cell based assays.
Splenocytes were cultured in RPMI complete media (RPMI+10% fetal bovine serum+1 mM sodium pyruvate+10,000 units/mL penicillin and […] streptomycin) and maintained in a CO2 incubator with 5% CO2 at 37° C.
CFSE is a dye that passively diffuses into cells and binds to intracellular proteins. 1×10^6 cells/mL of harvested splenocytes were treated with 5 μM of CFSE in pre-warmed 1×PBS/0.1% BSA solution for 10 min at 37° C. Excess CFSE was quenched using 5 volumes of ice-cold culture media to the cells and incubated on ice for 5 min. CFSE labelled splenocytes were further given three washes with ice cold complete RPMI media. CFSE labelled 1×10^5 splenocytes added to wells containing either MDA-MB231 cells (1×10^5 cells cultured in high glucose DMEM medium) or recombinant human PDL-1 (100 ng/mL) and test compounds. Splenocytes were stimulated with anti-mouse CD3 and anti-mouse CD28 antibody (1 μg/mL each) and the culture was further incubated for 72 h at 37° C. with 5% CO2. Cells were harvested and washed thrice with ice cold FACS buffer and % proliferation was analysed by flow cytometry with 488 nm excitation and 521 nm emission filters.
Percent splenocyte proliferation was analysed using cell quest FACS program and percent rescue of splenocyte proliferation by compound was estimated after deduction of % background proliferation value and normalising to % stimulated splenocyte proliferation (positive control) as 100%.
Stimulated splenocytes: Splenocytes+anti-CD3/CD28 stimulation
Background proliferation: Splenocytes+anti-CD3/CD28+PD-L1
Compound proliferation: Splenocytes+anti-CD3/CD28+PD-L1+Compound […]

T1 sequence (Q9EP73 with tags, fused parts or gaps limits assumed): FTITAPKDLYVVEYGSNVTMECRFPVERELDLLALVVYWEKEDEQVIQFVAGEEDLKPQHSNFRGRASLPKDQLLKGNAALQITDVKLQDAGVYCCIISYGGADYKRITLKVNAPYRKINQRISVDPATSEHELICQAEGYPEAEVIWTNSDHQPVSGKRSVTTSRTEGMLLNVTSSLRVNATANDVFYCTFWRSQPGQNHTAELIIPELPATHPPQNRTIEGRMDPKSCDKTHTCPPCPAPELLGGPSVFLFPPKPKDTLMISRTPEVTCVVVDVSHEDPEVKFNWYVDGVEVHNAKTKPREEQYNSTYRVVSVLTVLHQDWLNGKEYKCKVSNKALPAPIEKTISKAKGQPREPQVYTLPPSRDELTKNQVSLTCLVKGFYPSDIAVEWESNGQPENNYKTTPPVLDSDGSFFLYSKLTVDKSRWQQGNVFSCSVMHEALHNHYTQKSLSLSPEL

activation at 0.1 µM [%] | SMILES
37 | CC(O)[C@@H](NC(=O)N[C@@H](CC(N)=O)c1nc([C@@H](N)CO)no1)c1nnc(CO)o1 (stereo partly shown) [Compound 79]
26 | NC(=O)C[C@H](NC(=O)N[C@@H](CC(N)=O)c1nc([C@@H](N)CC(N)=O)no1)C(=O)O [Compound 56]
73 | CCC(C)[C@H](NC(=O)N[C@@H](CC(N)=O)c1nc([C@@H](N)CO)no1)C(=O)O (stereo partly shown) [Compound 3]
60 | CC(O)[C@H](NC(=O)N[C@@H](Cc1c[nH]c2ccccc12)c1nc([C@@H](N)CO)no1)C(=O)O (stereo partly shown) [Compound 43]
58 | CC(O)[C@H](NC(=O)N[C@@H](C)c1nc([C@@H](N)CO)no1)C(=O)O (stereo partly shown) [Compound 17]
84 | CCC(C)[C@H](N)c1noc([C@H](CC(N)=O)NC(=O)N[C@H](C(=O)O)C(C)O)n1 (stereo partly shown) [Compound 9]
60 | CC(O)[C@H](NC(=O)N[C@@H](CCC(N)=O)c1nc([C@@H](N)CCCNC(=N)N)no1)C(=O)O (stereo partly shown) [Compound 33]
66 | CC(=O)Nc1ccc(S(=O)(=O)N[C@@H](CC(N)=O)c2nc([C@@H](N)CO)no2)cc1 [Compound 90]
119 | CCCNC(=O)CC[C@H](NC(=O)N[C@H](C(=O)O)C(C)O)c1nc([C@@H](N)CO)no1 (stereo partly shown) [Compound 75]
44 | NC(=O)C[C@H](NC(=O)N[C@@H](CCC(=O)O)C(=O)O)c1nc([C@@H](N)CO)no1 [Compound 4]
75 | NC(=O)C[C@H](NC(=O)N[C@@H](Cc1ccccc1)C(=O)O)c1nc([C@@H](N)CO)no1 [Compound 39]
91 | N[C@@H](Cc1ccc(O)cc1)c1noc([C@@H]2CCCN2C(=O)N[C@@H](Cc2ccc(O)cc2)C(=O)O)n1 [Compound 7]
10 | NC(=O)C[C@H](NS(=O)(=O)C1CCCC1)c1nc([C@@H](N)CO)no1 [Compound 88]
71 | CCC(C)[C@H](N)c1noc([C@@H](NC(=O)N[C@H](C(=O)O)C(C)O)C(C)CC)n1 (stereo partly shown) [Compound 52]
51 | N[C@@H](Cc1ccc(O)cc1)c1noc([C@@H]2CCCCN2C(=O)N[C@@H](Cc2ccc(O)cc2)C(=O)O)n1 [Compound 20]
34 | CC(O)[C@H](NC(=O)N[C@@H](CC(N)=O)c1noc([C@@H](N)CO)n1)C(=O)O (stereo partly shown) [Compound 83]
